#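 Cultured in 96-well plates, cells were exposed to test compound for 48 hours across five concentrations. GI50 is the concentration that inhibits growth by half. TGI: concentration producing complete growth inhibition.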
# How the values were obtained:
# Test in all cases: NCI anticancer screen, dose series, 48 h
# 786-0 renal = test system: 786-0 renal
# CAKI-1 renal = test system: CAKI-1 renal
# A498 renal = test system: A498 renal
# RXF 393 renal = test system: RXF 393 renal
# HS 578T breast = test system: HS 578T breast
# MCF7 breast = test system: MCF7 breast
# CCRF-CEM leukemia = test system: CCRF-CEM leukemia
# HOP-92 NSCLC = test system: HOP-92 NSCLC
# A549 NSCLC = test system: A549 NSCLC
# SF-295 CNS = test system: SF-295 CNS
Compound,GI50 (786-0 renal) [µM],TGI (786-0 renal) [µM],GI50 (CAKI-1 renal) [µM],TGI (CAKI-1 renal) [µM],GI50 (A498 renal) [µM],TGI (A498 renal) [µM],GI50 (RXF 393 renal) [µM],TGI (RXF 393 renal) [µM],GI50 (HS 578T breast) [µM],TGI (HS 578T breast) [µM],GI50 (MCF7 breast) [µM],TGI (MCF7 breast) [µM],GI50 (CCRF-CEM leukemia) [µM],TGI (CCRF-CEM leukemia) [µM],GI50 (HOP-92 NSCLC) [µM],TGI (HOP-92 NSCLC) [µM],GI50 (A549 NSCLC) [µM],TGI (A549 NSCLC) [µM],GI50 (SF-295 CNS) [µM],TGI (SF-295 CNS) [µM]
CCCCCCCCCCCCCCCCCC[n+]1ccc2c(C)c3c(c(C)c2c1)c1cc(O)ccc1n3CC,2.21,10.4,11.5,28.7,1.19,3.86,1.57,3.89,2.23,7.79,2.75,17.1,3.27,34.2,1.64,5.68,1.28,5.47,1.42,4.3
NC(CSC1c2ccccc2-c2ccccc21)C(=O)O (stereo unspecified),–,> 100,–,> 100,–,> 100,–,> 100,–,> 100,–,> 100,–,> 100,–,> 100,–,> 100,–,> 100
CC(C)NCCCn1c(Sc2cc3c(cc2I)OCO3)nc2c(N)ncnc21,0.515,> 100,0.527,> 21.1,0.435,5.6,0.753,48.8,1.28,> 100,0.0453,> 100,0.425,> 100,0.289,1.62,0.0872,> 86.6,0.143,8.52
O=C1NC(=O)C(N2C(=O)c3ccccc3C2=O)CC1O (stereo unspecified),> 100,> 100,> 100,> 100,> 100,> 100,> 100,> 100,> 100,> 100,> 100,> 100,> 100,> 100,> 100,> 100,> 100,> 100,> 100,> 100
CNCCCNCCCCNCCCN1C(=O)c2ccc3c4c(ccc(c24)C1=O)C(=O)N(CCCNCc1ccccc1OC)C3=O,3.36,29.8,2.25,24.4,1.78,13.3,3.82,19.3,2.9,22,2.77,13,3.77,39,2.21,18.9,3.45,20.2,1.33,12.8
COc1ccc2cc1Oc1ccc(cc1)C[C@H]1c3c(cc4c(c3Oc3cc5c(cc3OC)CCN(C)[C@@H]5C2)OCO4)CCN1C,5.57,12,5.13,11.9,5.93,12.1,0.628,1.69,7.76,46.2,1.85,7.4,1.53,7.77,1.3,11.8,2.03,7.89,–,–
COc1ccc(-c2cc(-c3ccc(C)cc3)nc3nc(=S)[nH]c(N)c23)cc1,22.4,52.6,23.2,54.2,19.2,39.4,20.5,44.5,17.9,46.9,15.8,69.4,18.8,64.8,15.5,75.5,24.3,> 100,15.9,34.9
COc1ccc2c(c1)N(CCO)C1=C(C(=O)OC1)C2c1cccc(F)c1 (stereo unspecified),0.644,> 50,0.393,> 50,0.157,2.12,0.555,> 50,0.511,> 50,0.202,> 50,0.43,> 50,0.525,> 23.3,0.746,> 50,0.196,> 50
O=c1[nH]c(=O)n(C2CC(O)C(COP(=O)(OCc3ccc([N+](=O)[O-])o3)N(CCCCCl)CC(O)CO)O2)cc1F (stereo unspecified),0.624,> 100,0.191,0.589,0.138,39.1,0.0243,3.6,0.824,> 100,< 0.01,> 100,0.0102,> 100,0.156,–,< 0.01,> 100,0.295,> 25.1
CCOC(=O)C1=C(C)N(c2ccc(Cl)cc2)[C@]2(C#N)C(O)=C(Cl)C(Cl)=C(O)[C@]12C#N,> 100,> 100,38,> 100,> 100,> 100,> 100,> 100,> 100,> 100,> 100,> 100,25.6,75.9,78.2,> 100,> 100,> 100,> 100,> 100
CN1CCN(C(=O)c2cc(-c3ccc4ncnc(N5CCc6cc(F)c(Cl)cc65)c4c3)cnc2N)CC1,0.22,1.73,0.165,1.21,0.104,0.361,0.0922,0.48,0.116,0.491,0.0992,1.89,0.266,4.92,0.154,1.08,0.194,1.8,0.288,1.84
O=C(O)c1ccc(C(=O)c2ccccc2)c(C(=O)O)c1,–,> 100,–,> 100,–,> 100,–,> 100,–,> 100,–,> 100,–,> 100,–,> 100,–,> 100,–,> 100
CC(=O)/C=C/c1cn(C(=O)OC(C)(C)C)c2ccc(Br)cc12,11.8,25.3,22.1,42.5,20.1,39.7,15.6,37,26.8,65.4,9.71,46.5,1.07,> 100,13.4,35.8,18.8,52.4,14.1,28.8
CCc1ccc2c(c1)N(CCO)C1=C(C(=O)OC1)C2c1cccc(Br)c1 (stereo unspecified),0.617,14.7,0.711,23,0.373,8.84,0.216,1.82,0.468,20.9,0.244,1.68,0.351,15.6,3.15,21.5,0.655,14.8,0.374,13.2
COc1cc2c3c(n(C)c(=O)c2cc1OC)-c1cc2c(cc1/C3=C\CCCCN1C(=O)c3ccccc3C1=O)OCO2,16,> 100,0.686,35.4,2.79,37.1,56.5,> 100,26.5,> 100,10.8,53.9,9.71,43.7,–,7.49,7.03,27.9,11,68.1
O=S(=O)(Nc1cc(Sc2cccc3cccnc23)c(O)c2ccccc12)c1ccc(F)cc1,1.19,6.85,2.79,–,3.96,24.1,1.97,5.43,4.44,45.7,1.05,3.21,0.544,11.9,2.02,7.08,0.538,3.17,3.34,12.8
CN1C(=O)N(C)C2C1NN=c1s/c(=C\c3ccc(C(F)(F)F)cc3)c(=O)n12 (stereo unspecified),3.82,> 100,3.39,> 100,2,34.6,1.73,6.77,2.13,81.9,0.392,> 100,0.955,> 100,0.433,57.9,1.45,> 100,0.581,14.6
O=C(O)CN1CCN(CC(=O)O)CC(=O)[O][Hg][O]C(=O)C1,17.1,32.2,21.5,36.4,> 100,> 100,18.1,32.5,> 43.9,> 71.3,20.3,45.1,3.96,32,20.6,37.8,> 100,> 100,> 100,> 100
OCc1ccc(N2CCCC2c2ccccc2)cc1Cl (stereo unspecified),11.5,28.4,2.83,17.4,0.136,0.306,3.2,15.2,7.4,30.8,1.42,13.2,6.44,39.7,2.06,9.28,2.87,14.9,2.34,7.77
CN=c1ccc2nc3ccc(N)cc3sc-2c1,10.5,25.9,2.36,12.4,79.5,> 100,8.29,23.9,17,59.6,1.63,6.5,0.584,17.9,–,–,0.714,13.3,0.962,3.79
COc1cc2c(cc1C1COc3cc4occc4cc3C1=O)OCO2 (stereo unspecified),–,> 100,–,> 100,–,> 100,–,> 100,–,89.8,–,> 100,–,> 100,–,> 100,–,> 100,–,> 100
O=C1/C(=C/c2ccccc2[N+](=O)[O-])Cc2ccccc21,2.57,6.9,3.13,> 100,2.17,5.36,1.45,2.99,3.7,> 100,1.38,11.8,–,–,1.22,3.36,2.5,11,–,–
N#Cc1c(N2CCOCC2)nc(=S)[nH]c1-c1ccco1,6.2,80.8,3.77,62.4,1.19,7.23,12.9,> 100,2.08,17.3,2.12,> 100,5.52,52,1.79,> 100,14.9,> 100,–,–
O=C(Nc1ccc(OCc2nnc(-c3ccc(Cl)cc3)o2)c(F)c1)Nc1ccc(Cl)c(C(F)(F)F)c1,2.05,5.1,2.97,12.2,1.18,7.43,2.6,7.76,2.13,7.96,1.92,7.7,–,–,1.46,3.82,2.65,11.7,2.26,6.99
FC(F)(F)c1ccc(-c2cnc(-c3ncon3)nc2NC2CCCCCC2)cc1,63.6,> 100,67.9,> 100,42.9,> 100,28.9,> 100,32.1,> 100,31.6,> 100,22.9,60.4,–,–,38,> 100,34.5,> 100
COc1ccc(-c2[nH]c3ccccc3c2-c2ccc(OC)cc2)cc1,2.95,7.64,3.67,17.1,4,12.8,–,–,4.41,43.8,2.87,12.4,2.85,> 100,2.24,9.4,7.14,30.3,3.33,14

# Source: PubChem BioAssay (NCI)
